According to patent US20120282377A1, “Methods and Formulations for Inhibiting Degradation of Photosensitive Sweeteners and Sweetener Enhancers” (priority 2011, published 2012):
Where “and” joins values, the source holds several entries; their conditions need not be identical. Equal entries are not always repeated.

Assay: Monatin stability in lemon-lime beverage with EMIQ, visible light (Example 4)
Assay type: physicochemical
Conditions: for % Monatin remaining / Conc. of Monatin: with EMIQ
Method: The polyphenol enzymatically-modified isoquercitrin (EMIQ) was used to stabilize monatin (31 mg/L) in a lemon lime carbonated beverage formulation contained in either a regular (clear, colorless) PET bottle or a dark-colored PET bottle. The level of EMIQ in the samples was 7.5 PPM. A control formulation was used that contained no EMIQ. The samples were exposed to UV light or ambient indoor laboratory fluorescent lighting for up to 72 hours. UV light was administered in a UV chamber at 40° C. with approximately 400 Langley per 6 hours of exposure. The results listed below indicate that the monatin was very unstable in the control formulations with only 1.4% monatin remaining after 24 hours exposure to UV light. EMIQ provided protection from degradation of the monatin. When packaged in a dark-colored PET bottle approximately 89% monatin remained in the formulation after exposure to UV light for 24 hours. When exposed to ambient indoor laboratory lighting for 72 hours over 90% monatin remained in both clear and dark PET bottles containing the EMIQ polyphenol. All analyses were done by HPLC/MS.

[1] = dark-colored PET, Vis. exp. 0 hours
[2] = dark-colored PET, Vis. exp. 5 hours
[3] = dark-colored PET, Vis. exp. 7 hours
[4] = dark-colored PET, Vis. exp. 23 hours
[5] = dark-colored PET, Vis. exp. 28 hours
[6] = dark-colored PET, Vis. exp. 48 hours
[7] = regular PET, Vis. exp. 23 hours
[8] = regular PET, Vis. exp. 28 hours
[9] = regular PET, Vis. exp. 48 hours

monatin remained (ambient indoor laboratory lighting for 72 hours, both clear and dark PET bottles containing the EMIQ polyphenol): over 90%
% Monatin remaining [1]: 100%
Conc. of Monatin [1]: 30930 ng/mL
% Monatin remaining [2]: 97.5%
Conc. of Monatin [2]: 30160 ng/mL
% Monatin remaining [3]: 96.4% and 96.2%
Conc. of Monatin [3]: 29810 ng/mL and 29760 ng/mL
% Monatin remaining [4]: 93.3% and 93.1%
Conc. of Monatin [4]: 28870 ng/mL and 28790 ng/mL
% Monatin remaining [5]: 94.5%
Conc. of Monatin [5]: 29220 ng/mL
% Monatin remaining [6]: 92.1% and 92.4%
Conc. of Monatin [6]: 28490 ng/mL and 28590 ng/mL
% Monatin remaining (regular PET, Vis. exp. 0 hours): 100%
Conc. of Monatin (regular PET, Vis. exp. 0 hours): 30930 ng/mL
% Monatin remaining (regular PET, Vis. exp. 5 hours): 99.0% and 98.6%
Conc. of Monatin (regular PET, Vis. exp. 5 hours): 30620 ng/mL and 30510 ng/mL
% Monatin remaining (regular PET, Vis. exp. 7 hours): 97.2% and 97.4%
Conc. of Monatin (regular PET, Vis. exp. 7 hours): 30060 ng/mL and 30120 ng/mL
% Monatin remaining [7]: 94.1%
Conc. of Monatin [7]: 29100 ng/mL
% Monatin remaining [8]: 94.7% and 94.8%
Conc. of Monatin [8]: 29270 ng/mL and 29320 ng/mL
% Monatin remaining [9]: 92.7% and 92.5%
Conc. of Monatin [9]: 28680 ng/mL and 28610 ng/mL
SMILES: NC(CC(O)(Cc1c[nH]c2ccccc12)C(=O)O)C(=O)O (stereo not shown) [Monatin, 2-amino-4-carboxy-4-hydroxy-5-(3-indolyl)-pentanoic acid]
